Assay results as given in patent publication US8524738B2, “Quinolinones and quinoxalinones as antibacterial composition” (Toyama Chemical Co., Ltd., priority 2005, dated 2013).
In brackets after ≈: the same amount, converted by molar mass. Structures can show the parent of a compound that is named as a salt. Where two headings read alike, the source gives them in different places.

Columns and labels:
[1] = test system: Staphylococcus aureus (S. aureus FDA209P); experiment: Sensitivity Test 1: antibacterial activity (MIC) by micro-dilution method; assay type: cell-based
Experimental: (§1) Test compounds were initially dissolved in dimethylsulfoxide. Antibacterial activities (MICs) of the same compounds were determined by the micro-dilution method as recommended by the Japanese Society of Chemotherapy.
(§2) Staphylococcus aureus (S. aureus FDA209P) was used as the test organism. The bacterial cells were grown overnight at 35° C. on Mueller-Hinton agar (MHA) plates. The bacterial cells were then suspended in sterile saline and adjusted to the turbidity of a 0.5 McFarland standard. The inoculum was prepared by 10-fold dilution of this suspension. Approximately 0.005 mL aliquots of the inoculum prepared above were subsequently inoculated into Cation-adjusted Mueller-Hinton broth (CAMHB, 100 μL/well) including the test compounds for overnight incubation at 35° C.

[2] = test system: Methicillin-resistant Staphylococcus aureus (S. aureus F-3095); experiment: Sensitivity Test 2: antibacterial activity (MIC) by micro-dilution method; assay type: cell-based
Experimental: as §1, §2
Methicillin-resistant Staphylococcus aureus (S. aureus F-3095) was used as the test organism. Antibacterial activities (MICs) were determined in the same manner as in Test Example 1.

[3] = test system: Vero cells; experiment: Cytotoxicity Test (XTT) on Vero cells; assay type: cell-based; conditions: 51.2 μg/mL of test compound, 3 days at 37° C., XTT absorbance ratio of treated to untreated well
Experimental: Test compounds were initially dissolved in dimethylsulfoxide. […]. After incubation, absorbance was read at 450 nm and 655 nm in a spectrophotometric microplate reader. The values were expressed as the ratio between the value for the well treated with 51.2 μg/mL of each test compound and the value for the well untreated with the test compound (T/C).

[4] = test system: S. aureus Smith; experiment: Infection Test: mice infected intraperitoneally with S. aureus Smith; assay type: in vivo; conditions: ICR mice, 5 per group; S. aureus Smith i.p.; 10 mg/kg subcutaneously once at 1 hour after infection; survivors recorded 3 days after infection
Experimental: S. aureus Smith which was grown overnight at 37° C. on Mueller-Hinton agar (MHA) plates were suspended to give a final concentration of 10^9 CFU/mL. The inoculum was prepared by diluting this suspension 10-fold in 1/15 mol/L phosphate buffer (pH 7) containing 5.6% mucin. ICR mice (4 to 4.5 weeks of age, male, 5 mice per group) were intraperitoneally administered with the inoculum (approximately 2×10^7 CFU per mice) to induce infection.
After dissolving the test compounds in 0.1 mol/L hydrochloric acid, 20% 2-hydroxypropyl-β-cyclodextrin (HP-β-CD) or a mixture of 20% HP-β-CD and 0.1 mol/L hydrochloric acid at a proportion of 1:1 was added to give a final concentration of 1 mg/mL. Each of the test compound solutions (10 mg/kg) was subcutaneously administered once to a group of mice at 1 hour after infection. The control group was administered with 10% HP-β-CD. The mice were observed daily and the number of surviving mice in each group was recorded 3 days after infection.

SMILES	MIC ([1]; FDA209P)	MIC [2]	T/C [3]	Number of surviving mice [4]	MIC ([1]; S. aureus FDA209P, CAMHB, overnight incubation at 35° C., lowest concentration with virtually no growth, read-out: MIC)	MIC ([2]; Methicillin-resistant S. aureus F-3095, same manner as in Test Example 1, read-out: MIC)
Nc1cccc2c1ccc(=O)n2CCN1CCC(NCc2ccc3c(c2)OCCO3)CC1 [Example 263, 1-(2-(4-((2,3-dihydro-1,4-benzodioxin-6-ylmethyl)amino)piperidin-1-yl)ethyl)-5-aminoquinolin-2(1H)-one hydrochloride]	0.125 µg/mL	0.25 µg/mL	>50%	5	–	–
CNC(=O)c1cc(=O)n(CCN2CCC(NCc3ccc4c(c3)OCCO4)CC2)c2cc(OC)ccc12 [Example 25, 1-(2-(4-((2,3-dihydro-1,4-benzodioxin-6-ylmethyl)amino)piperidin-1-yl)ethyl)-7-methoxy-N-methyl-2-oxo-1,2-dihydroquinoline-4-carboxamide]	–	–	>50%	5	0.0625 µg/mL (≈ 0.123 µM)	0.125 µg/mL (≈ 0.247 µM)
O=c1cnc2ccc(F)cc2n1CCN1CCC(NCc2cc3c(cn2)OCCO3)CC1 [Example 352, 1-(2-(4-((2,3-dihydro-1,4-dioxino[2,3-c]pyridin-7-yl)methylamino)piperidin-1-yl)ethyl)-7-fluoroquinoxalin-2(1H)-one hydrochloride]	0.0156 µg/mL	0.0313 µg/mL	>50%	5	–	–
CNC(=O)c1cc(=O)n(CCN2CCC(NCc3cc(-c4cccs4)on3)CC2)c2cc(OC)ccc12 [Example 341, 7-methoxy-N-methyl-2-oxo-1-(2-(4-((5-(thiophen-2-yl)isoxazol-3-yl)methylamino)piperidin-1-yl)ethyl)-1,2-dihydroquinoline-4-carboxamide hydrochloride]	0.0313 µg/mL	0.0625 µg/mL	>50%	5	–	–
COc1ccc2ncc(=O)n(CCN3CCC(NCc4cc5c(cn4)OCCO5)CC3)c2c1 [Example 359, 1-(2-(4-((2,3-dihydro-1,4-dioxino[2,3-c]pyridin-7-yl)methylamino)piperidin-1-yl)ethyl)-7-methoxy-quinoxalin-2(1H)-one hydrochloride]	0.0313 µg/mL	0.0313 µg/mL	>50%	5	–	–
COCCNC(=O)c1cc(=O)n(CCN2CCC(NCc3ccc4c(c3)OCCO4)CC2)c2cc(OC)ccc12 [Example 141, 1-(2-(4-((2,3-dihydro-1,4-benzodioxin-6-ylmethyl)amino)piperidin-1-yl)ethyl)-7-methoxy-N-(2-methoxyethyl)-2-oxo-1,2-dihydroquinoline-4-carboxamide hydrochloride]	0.125 µg/mL	0.25 µg/mL	>50%	5	–	–
O=C1CSc2ccc(CNC3CCN(CCn4c(=O)cnc5ccc(F)cc54)CC3)nc2N1 [Example 369, 7-fluoro-1-(2-(4-((3-oxo-3,4-dihydro-2H-pyrido[3,2-b][1,4]thiazin-6-yl)methylamino)piperidin-1-yl)ethyl)quinoxalin-2(1H)-one hydrochloride]	0.0313 µg/mL	0.0313 µg/mL	>50%	5	–	–
Cc1ccc(CNC2CCN(CCn3c(=O)cnc4ccc(F)cc43)CC2)cc1F [Example 367, 1-(2-(4-((3-fluoro-4-methylbenzyl)amino)piperidin-1-yl)ethyl)-7-fluoroquinoxalin-2(1H)-one hydrochloride]	0.0156 µg/mL	0.0156 µg/mL	>50%	5	–	–
CNC(=O)c1cc(=O)n(CCN2CCC(NCc3ccc(C)c(F)c3)CC2)c2cc(OC)ccc12 [Example 340, 1-(2-(4-(3-fluoro-4-methylbenzylamino)piperidin-1-yl)ethyl)-7-methoxy-N-methyl-2-oxo-1,2-dihydroquinoline-4-carboxamide hydrochloride]	0.0313 µg/mL	0.0625 µg/mL	>50%	5	–	–
